We go through nine compounds from patent US8546357B2, “Boron-containing small molecules for controlling ectoparasites” (priority 2011, dated 2013).

In general, mortality refers to the share of the test organisms that died.

The first experiment has as its system Lone star tick larvae (Amblyomma americanum). The experiment can be described thus: Larval immersion microassay against larval-stage Lone star ticks. The conditions noted are these: 0.3 mM, larval immersion microassay, 24 hours. On the procedure: The larval immersion microassay was conducted as described in detail in White, et al., J. Med. Entomol. 41: 1034-1042 (2004). Compounds of the invention were formulated in dimethylsulfoxide (DMSO) to prepare a stock solution at a concentration of at least 10 mM. Using 96-well microtiter plates, an aliquot of the mM sample was subsequently diluted in a water-based solution containing 1% ethanol and 0.2% Triton X-100, to obtain the desired concentration (typically 0.3 mM or lower) of compound in a volume of 0.1 ml (minimum n=3 replicates per compound or concentration). Approximately 30-50 Lone star tick larvae (Amblyomma americanum) were submerged into each well containing compounds. After a 30 minute immersion period, larvae were removed with a wide-bore pipette tip in 0.05 ml of fluid, dispensed into a commercial paper tissue biopsy bag which was sealed at the top with a plastic dialysis clip, inverted and allowed to air dry for 60 minutes. Bags containing larvae were then incubated at approximately 27 degrees Celsius and >90% relative humidity. After 24 hours, bags were opened, live and dead larvae were counted and percent larval mortality was calculated.
7 and 8 contain one chiral center each, and are racemic mixtures comprised of approximately 50% R- and 50% S-enantiomer. In vitro and surrogate animal (rat) studies were conducted to evaluate the biological activity of the R- and S-enantiomers of 7 and 8. For the in vitro study, larvae of the Lone star tick (Amblyomma americanum) were exposed to 9, 10, 11 and 12 using the larval immersion microassay at a concentration of no greater than 0.3 mM. Following exposure, larvae were removed, transferred to a tissue biopsy bag and incubated at approximately 27 degrees Celsius and >90% relative humidity. After 24 hours, biopsy bags were opened and the numbers of live and dead larvae were determined
Regarding `Cc1cc(C2=NO[C@](c3cc(Cl)c(Cl)c(Cl)c3)(C(F)(F)F)C2)ccc1C(=O)NCc1ccc2c(c1)B(O)OC2(C)C` [Compound 10, (R)—N-((1-hydroxy-3,3-dimethyl-1,3-dihydrobenzo[c][1,2]oxaborol-6-yl)methyl)-2-methyl-4-(5-(3,4,5-trichlorophenyl)-5-(trifluoromethyl)-4,5-dihydroisoxazol-3-yl)benzamide], the “In vitro activity at 0.3 mM” value amounted to 0.0%. The same measure, in the same setting: the value for `Cc1cc(C2=NO[C@](c3cc(Cl)c(F)c(Cl)c3)(C(F)(F)F)C2)ccc1C(=O)NCc1ccc2c(c1)B(O)OC2(C)C` [Compound 12, (R)-4-(5-(3,5-Dichloro-4-fluorophenyl)-5-(trifluoromethyl)-4,5-dihydroisoxazol-3-yl)-N-((1-hydroxy-3,3-dimethyl-1,3-dihydrobenzo[c][1,2]oxaborol-6-yl)methyl)-2-methylbenzamide] was 0.0%.

Still in this experiment, the particulars now being: Amblyomma americanum, 24 h, read-out: activity (percent larval mortality).
In the case of `Cc1cc(C2=NOC(c3cc(Cl)c(Cl)c(Cl)c3)(C(F)(F)F)C2)ccc1C(=O)NCc1ccc2c(c1)C(C)(C)OB2O` (stereo not drawn) [Compound 1, N-((1-Hydroxy-3,3-dimethyl-1,3-dihydrobenzo[c][1,2]oxaborol-5-yl)methyl)-2-methyl-4-(5-(3,4,5-trichlorophenyl)-5-(trifluoromethyl)-4,5-dihydroisoxazol-3-yl)benzamide], the mortality at 300 µM was not below 80%.

Take `Cc1cc(C2=NOC(c3cc(Cl)cc(Cl)c3)(C(F)(F)F)C2)ccc1C(=O)NCc1ccc2c(c1)C(C)(C)OB2O` (stereo not drawn) [Compound 2, 4-(5-(3,5-Dichlorophenyl)-5-(trifluoromethyl)-4,5-dihydroisoxazol-3-yl)-N-((1-hydroxy-3,3-dimethyl-1,3-dihydrobenzo[c][1,2]oxaborol-5-yl)methyl)-2-methylbenzamide]: the mortality at 300 µM is not below 80%.

For the compound `Cc1cc(C2=NOC(c3cc(Cl)cc(Cl)c3)(C(F)(F)F)C2)ccc1C(=O)NCc1ccc2c(c1)B(O)OC2` (stereo not drawn) [Compound 4, 4-(5-(3,5-Dichlorophenyl)-5-(trifluoromethyl)-4,5-dihydroisoxazol-3-yl)-N-((1-hydroxy-1,3-dihydrobenzo[c][1,2]oxaborol-6-yl)methyl)-2-methylbenzamide], the mortality at 300 µM was not below 80%. The same measure, in the same setting: then `CCC1(CC)OB(O)c2cc(CNC(=O)c3ccc(C4=NOC(c5cc(Cl)cc(Cl)c5)(C(F)(F)F)C4)cc3C)ccc21` (stereo not drawn) [Compound 13, 4-(5-(3,5-Dichlorophenyl)-5-(trifluoromethyl)-4,5-dihydroisoxazol-3-yl)-N-((3,3-diethyl-1-hydroxy-1,3-dihydrobenzo[c][1,2]oxaborol-6-yl)methyl)-2-methylbenzamide], with not below 80%; and `CCC1(CC)OB(O)c2cc(CNC(=O)c3ccc(C4=NOC(c5cc(Cl)c(F)c(Cl)c5)(C(F)(F)F)C4)cc3C)ccc21` (stereo not drawn) [Compound 14, 4-(5-(3,5-Dichloro-4-fluorophenyl)-5-(trifluoromethyl)-4,5-dihydroisoxazol-3-yl)-N-((3,3-diethyl-1-hydroxy-1,3-dihydrobenzo[c][1,2]oxaborol-6-yl)methyl)-2-methylbenzamide], with not below 80%; and `Cc1cc(C2=NOC(c3cc(Cl)cc(Cl)c3)(C(F)(F)F)C2)ccc1C(=O)NCc1ccc2c(c1)B(O)OC2(CF)CF` (stereo not drawn) [Compound 16, N-((3,3-Bis(fluoromethyl)-1-hydroxy-1,3-dihydrobenzo[c][1,2]oxaborol-6-yl)methyl)-4-(5-(3,5-dichlorophenyl)-5-(trifluoromethyl)-4,5-dihydroisoxazol-3-yl)-2-methylbenzamide], with not below 80%. The same measure, in the same setting: then `Cc1cc(C2=NOC(c3cc(Cl)c(Cl)c(Cl)c3)(C(F)(F)F)C2)ccc1C(=O)NCc1ccc2c(c1)B(O)OC2(CF)CF` (stereo not drawn) [Compound 17a, N-((3,3-Bis(fluoromethyl)-1-hydroxy-1,3-dihydrobenzo[c][1,2]oxaborol-6-yl)methyl)-2-methyl-4-(5-(3,4,5-trichlorophenyl)-5-(trifluoromethyl)-4,5-dihydroisoxazol-3-yl)benzamide], with not below 80%.
